In patent publication US9457101B2, “Hydrogels for delivery of therapeutic polypeptides” (priority 2012, dated 2016):
Where two headings read alike, the source gives them in different places.

Experiments:
[1] = tested on: blood vessels per area formed in the hydrogel; experiment: Mouse angiogenesis model, subcutaneous hydrogel implants; format: in vivo, mice; conditions: GM6001 intraperitoneally 0.1 mg/g once daily for two weeks
From the text: PEGDA:GSH hydrogel is loaded with one or more GST-polypeptide fusions having a cleavage site for matrix metalloprotease-9 between GST and the polypeptide. Matrix metalloprotease-9 (MMP-9) recognizes the cleavage site having the amino acid sequence […] (SEQ ID NO:5). The loaded hydrogel is implanted in a mouse angiogenesis model to assess the bioactivity of the released polypeptides. Particularly, the polypeptides eGFP (i.e., Green Fluorescent Protein), mCherry (Red Fluorescent Protein), and a cell lytic polypeptide having the amino acid sequence […] (SEQ ID NO:3) are examined in this angiogenesis model.
Specifically, mice are administered an intraperitoneal injection of ketamine and xylazine (100 mg/kg and 5 mg/kg, respectively), and an injection site is rubbed with 75% ethanol. Anesthesia is indicated by a toe pinch reflex test. All instruments are autoclaved prior to use and standard aseptic technique is followed for the procedure as detailed below. […]
After 14 days, the inserted hydrogels are removed for whole mount immunostaining to determine the number of blood vessels per area formed in the hydrogel. […] Particularly, after one-hour of blocking, the hydrogel is incubated with anti-CD31 antibody overnight at 4 degrees Celsius to allow for fluorescence imaging of the endothelium formed about and/or within the hydrogel. […]

[2] = biological target: glutathione s-transferase; conditions: read-out: dissociation constant of glutathione from glutathione s-transferase; cited from earlier work
[3] = tested on: S. pyogenes; experiment: Bacterial growth inhibition by free proteins (A600); format: cell-based; conditions: 10 μM, at 5 hours
Procedure: Bacterial Growth Inhibition. Following digestion with thrombin as described above, GSH-agarose beads (GoldBio, St. Louis, Mo.) were used to separate GST from recombinant melittin. Synthetic melittin and GST-6xHis-melittin underwent a similar process without thrombin or being subjected to GSH-agarose treatment. Overnight cultures of S. pyogenes (ATCC, Manassas, Va., BAA-1633) cells were diluted in chemically defined medium were diluted to approximately 10^8 colony forming units (CFUs), corresponding to an absorbance at 600 nm (A600) of 0.1, and 150 μL distributed into 96-well, optical-bottom plates (Greiner BioOne, Frickenhausen, Germany) for treatment. GST-6xHis-melittin, recombinant melittin, or synthetic melittin (10 μM) were then added and the plate was incubated at 37° C. with shaking using a Biotek Synergy 2 plate reader (Winooski, Vt.). Absorbance (A600) measurements were obtained every ten minutes for 12 hours.

[4] = tested on: U-87 MG cells; experiment: Tumor cell growth inhibition (MTS assay); format: cell-based; conditions: 10 μM protein (thrombin 2 U), fusion without thrombin
Procedure: Tumor Cell Growth Inhibition. All proteins were incubated with thrombin at 37° C. for two hours prior to cellular assays. Malignant glioma cells, U-87 MG, (ATCC, Manassas, Va., 3,000 cells/cm^2) were seeded in a 96 well plate together with appropriate treatments in 100 μL DMEM and 10% FCS (Sigma-Aldrich, St. Louis, Mo.). Treatments included a cell only control (untreated), thrombin (2 U), GST (10 μM), GST-6xHis-melittin (10 μM), GST-6xHis-melittin (10 μM) simultaneously with thrombin (2 U), or synthetic melittin (10 μM; GenScript RP20415, Sigma-Aldrich, St. Louis, Mo.). The cells with their respective treatments were incubated at 37° C. in 5% CO2 overnight, approximately 16 hours. The MTS assay (Promega, Madison, Wis., CellTitre96) was performed according to the manufacturer recommendation and incubated for two hours before reading absorbance at 495 nm on a Labsystems Multiskan plus plate reader (Thermo Scientific, Hanover Park, Ill.).

[5] = tested on: thrombin; experiment: Kinetics of thrombin cleavage of GST-GFP (SDS-PAGE densitometry); format: biochemical; conditions: for Km: read-out: Michaelis-Menten constant (Km) of thrombin to GST-GFP
Procedure: Reaction kinetics were measured by semi-quantitative densitometry of SDS-PAGE gels. Reactions with equivalent concentrations of GST-GFP substrate and varying concentrations of thrombin (0.1, 0.33, 0.75, 1.5, and 3 μM) were incubated at 37° C. for varying amounts of time. In groups where cleavage from microspheres was reported, approximately 10,000 microspheres were used. Reactions were stopped by addition of Laemmli sample buffer (containing SDS) and stored at 4° C. until run on SDS-PAGE. All gels were run with known concentrations of BSA standards. Density measurements were made with NIH imageJ software with gel backgrounds normalized. Each thrombin concentration was run one time, except for […], which was ran in biological triplicate.

[6] = below 1 mM GSH, after 6 days
Procedure: Protein Release. GSH mediated release studies were carried out over 6 days. Protein release was measured from 10,000 to 20,000 microspheres into 500 μL PBS in the presence and absence of glutathione. Release was measured with three independent replicates per experimental group. […] Therefore, at each 24-hour time point, glutathione containing buffers were completely replaced. The buffer that was removed was frozen for later analysis. At the completion of the experiment, all frozen samples were thawed and 50 μL of each samples were diluted in PBS and read on a Quantech fluorometer.

Molecule: CNC(=O)[C@H](Cc1c[nH]c2ccccc12)NC(=O)[C@@H](CC(=O)NO)CC(C)C [GM6001]
- vessel growth in the hydrogel [1]: limited vessel growth

Molecule: N[C@@H](CCC(=O)N[C@@H](CS)C(=O)NCC(=O)O)C(=O)O [glutathione]
- Kd [2]: 22 µM

Molecule: CC[C@H](C)[C@H](NC(=O)CN)C(=O)NCC(=O)N[C@@H](C)C(=O)N[C@H](C(=O)N[C@@H](CC(C)C)C(=O)N[C@@H](CCCCN)C(=O)N[C@H](C(=O)N[C@@H](CC(C)C)C(=O)N[C@H](C(=O)N[C@H](C(=O)NCC(=O)N[C@@H](CC(C)C)C(=O)N1CCC[C@H]1C(=O)N[C@@H](C)C(=O)N[C@@H](CC(C)C)C(=O)N[C@H](C(=O)N[C@@H](CO)C(=O)N[C@@H](Cc1c[nH]c2ccccc12)C(=O)N[C@H](C(=O)N[C@@H](CCCCN)C(=O)N[C@@H](CCCNC(=N)N)C(=O)N[C@@H](CCCCN)C(=O)N[C@@H](CCCNC(=N)N)C(=O)N[C@@H](CCC(N)=O)C(=O)N[C@@H](CCC(N)=O)C(N)=O)[C@@H](C)CC)[C@@H](C)CC)[C@@H](C)O)[C@@H](C)O)C(C)C)C(C)C [synthetic melittin, melittin, reference compound]
- growth of S. pyogenes [3]: almost completely inhibited the growth
- survival of U-87 MG cells [4]: 15%

Molecule: GST-GFP
- apparent Vmax of thrombin mediated release [5]: 0.13 µg/min
- Km ([5]; GST-GFP in association with PEGDA-GSH microspheres): ~0.3 µM
- Km ([5]; free GST-GFP): ~0.18 µM
- protein remaining associated with the particles [6]: more than 80%

Molecule: recombinant melittin: melittin cleaved by thrombin from purified recombinant GST-6xHis-melittin
- growth of S. pyogenes [3]: almost completely inhibited the growth
